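48-hour exposure; five concentrations; linearly interpolated endpoints. GI50: concentration for 50% inhibition of growth.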 Activity calls are given as the source filed them. Cut-off read from the data, not from the text of the source: active = GI50 up to about 1.1 µM and inactive = higher.
Columns and labels:
Test in all cases: DTP human tumour cell line panel, 48 h
[1] = system: M14
[2] = system: DU-145
[3] = system: ACHN
[4] = system: RXF 393
[5] = system: SK-MEL-2
[6] = system: HCC 2998
[7] = system: COLO 205
[8] = system: TK-10
[9] = system: CAKI-1
[10] = system: OVCAR-4
[11] = system: OVCAR-5
[12] = system: IGROV-1
[13] = system: SF-268
[14] = system: HCT-116
[15] = system: HOP-62
[16] = system: CCRF-CEM
[17] = system: MOLT-4
[18] = system: Malme-3M
[19] = system: A498
[20] = system: SR

Measured: GI50

CS(=O)(=O)c1nc(-c2cc3c(c(S(C)(=O)=O)n2)CCC3)cc2c1CCCC2
inactive: [1] > 100 µM | [2] > 100 µM | [3] 37 µM | [4] 15.6 µM | [5] 24.6 µM | [6] > 100 µM | [7] > 100 µM | [8] 64.9 µM | [9] 17 µM | [10] > 100 µM | [11] > 100 µM | [12] 18.3 µM | [13] 7.76 µM | [14] > 100 µM | [15] 24.1 µM | [16] > 100 µM | [17] > 100 µM

C1=C2C3=[N+](CCCC3)CC2Cc2ccsc21 (centres undefined)
inactive: [1] 71.3 µM | [2] > 100 µM | [3] > 100 µM | [4] 65 µM | [5] > 100 µM | [18] 63 µM | [7] > 100 µM | [8] 87.7 µM | [9] > 100 µM | [10] 84.3 µM | [11] > 100 µM | [12] > 100 µM | [13] > 100 µM | [14] > 100 µM | [15] > 100 µM | [19] 52.8 µM | [16] > 100 µM | [17] > 100 µM

CC(C)=CCC[C@@H](C)C1=C(O)C(=O)C(C)=C(c2c(I)c(=O)n(C)c(=O)n2C)C1=O
inactive: [1] > 100 µM | [2] > 100 µM | [3] > 100 µM | [5] > 100 µM | [6] > 100 µM | [18] > 100 µM | [7] > 100 µM | [8] > 100 µM | [9] > 100 µM | [10] > 100 µM | [11] > 100 µM | [12] 60.3 µM | [13] > 100 µM | [14] > 100 µM | [15] > 100 µM | [19] > 100 µM | [16] > 100 µM | [17] 36.8 µM

COC(=O)[C@H](Cc1c[nH]c2ccccc12)NP(=O)(O)OC[C@H]1O[C@@H](n2cc(C)c(=O)[nH]c2=O)C[C@@H]1N=[N+]=[N-]
inactive: [1] > 100 µM | [2] > 100 µM | [4] > 100 µM | [5] > 100 µM | [6] > 100 µM | [18] > 100 µM | [7] > 100 µM | [8] > 100 µM | [9] > 100 µM | [10] > 100 µM | [11] > 100 µM | [12] > 100 µM | [13] > 100 µM | [14] > 100 µM | [15] > 100 µM | [16] > 100 µM | [17] > 100 µM

COc1cc(Cn2c3ccccc3c3cc(C)c4c(c32)C=CC(C)(CCC=C(C)C)O4)cc2c1[nH]c1ccccc12 (centres undefined) [CHRESTFOLINE C]
inactive: [1] > 100 µM | [3] > 100 µM | [4] > 100 µM | [5] > 100 µM | [6] > 100 µM | [18] > 100 µM | [7] > 100 µM | [8] > 100 µM | [9] > 100 µM | [10] > 100 µM | [11] > 100 µM | [20] > 100 µM | [12] > 100 µM | [13] > 100 µM | [14] > 100 µM | [15] > 100 µM | [19] > 100 µM | [16] > 100 µM | [17] > 100 µM

Source: ChEMBL document CHEMBL1201862, “PubChem BioAssay data set” (2004)
